Measurements taken from patent publication US20260091026A1, “METHODS OF TREATING INFLAMMATORY DISEASES” (INTERLINE THERAPEUTICS, INC., priority 2023, published 2026).
pIC50: −log10 of the molar value.

Key:
RIPK2 (KD)/XIAP (BIR2) = target: T1, RIPK2 (KD)/XIAP (BIR2) (Homo sapiens, UniProt O43353); assay: RIPK2-XIAP binding competition PPI assay (TR-FRET); settings: for Emax: read-out: PPI Amax; for pIC50: GST-RIPK2 / His-XIAP (BIR2)-avi, 120 min at 23° C.
T1 construct: made in house; host or cells: baculovirus-infected Sf9 cells
T1 sequence (O43353 1-310): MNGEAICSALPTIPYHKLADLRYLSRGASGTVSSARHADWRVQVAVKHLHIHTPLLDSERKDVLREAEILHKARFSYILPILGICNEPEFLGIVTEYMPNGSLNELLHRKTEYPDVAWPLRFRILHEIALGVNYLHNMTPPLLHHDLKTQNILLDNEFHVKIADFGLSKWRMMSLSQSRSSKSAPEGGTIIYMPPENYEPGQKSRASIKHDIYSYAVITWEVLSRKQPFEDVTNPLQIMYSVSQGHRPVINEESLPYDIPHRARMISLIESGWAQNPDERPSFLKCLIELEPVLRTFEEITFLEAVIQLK
In short: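 TR-FRET competition between GST-RIPK2 (aa 1-310, 1 nM) and His-XIAP BIR2-avi (aa 152-231, 25 nM), both Sf9-expressed, detected with anti-His-XL665 and anti-GST-Tb in Tris pH 7.5 buffer with MgCl2, DTT and vanadate. Incubation was 120 min at 23 °C; the 665/520 nm ratio was normalized to no inhibitor (0%) and 50 nM GSK583 (−100%).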

[1] = test system: THP1-Dual cells, NF-κB pathway (SEAP); assay: THP-1 Dual cell SEAP assay (L18-MDP stimulated); format: cell-based; settings: Homo sapiens, 10 ng/mL L18-MDP, 20-24 h, SEAP readout, read-out: IFNγ THP1 IC50
In short: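 About 25,000 THP1-Dual cells per well were preincubated 30 min with serially diluted compound, then stimulated overnight (20-24 h, 37 °C) with 10 ng/mL L18-MDP (final). NF-κB-driven SEAP in supernatant was read with QUANTI-Blue at OD 620-655 nm after 2 h; % inhibition versus DMSO/L18-MDP wells was fitted by non-linear regression to give IC50.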

[2] = target: T2, GST-RIPK2 fusion protein (human RIPK2 amino acids 1-310) (Homo sapiens, UniProt O43353); assay: RIPK2 binding competition assay (TR-FRET, Tracer 199); settings: displacement of Tracer 199 (10 nM), 45 min at 22° C.
T2 construct: made in house; host or cells: baculovirus-infected Sf9 cells
T2 sequence (O43353 1-310): as above
Description: The ability of selected compounds of Formulas (I) and (II) to inhibit the binding of an Alexa647-labelled ATP-competitive kinase inhibitor to a GST-RIPK2 fusion protein was quantified employing the TR-FRET-based RIPK2 binding competition assay as described in the following paragraphs.
Recombinant fusion protein of N-terminal Glutathione-S-Transferase (GST) and a fragment of human RIPK2 (amino acids 1-310 of accession number 043353), expressed in baculovirus infected Sf9 cells, purified via glutathione affinity chromatography, was used as GST-RIPK2 fusion protein. Tracer 199 from Life Technologies (catalogue no. PR9115B) was used as Alexa647-labelled ATP-competitive kinase inhibitor.
For the assay, 50 nL of a 100-fold concentrated solution of each test compound in DMSO was pipetted into either a black low volume 384-well microtiter plate or a black 1536-well microtiter plate (both Greiner Bio-One, Frickenhausen, Germany), 3 μL solution of Tracer 199 (16.7 nM=>final concentration in 5 μL assay volume is 10 nM) in aqueous assay buffer (25 mM Tris/HCl pH 7.5, 10 mM magnesium chloride (MgCl2), 5 mM β-glycerophosphate, 2.5 mM dithiothreitol (DTT), 0.5 mM ethylene glycol-bis(2-aminoethylether)-N,N,N′,N′-tetraacetic acid (EGTA), 0.5 mM sodium ortho-vanadate, 0.01% (w/v) bovine serum albumin (BSA), 0.005% (w/v) Pluronic F-127 (Sigma)) were added. Then the binding competition was started by the addition of 2 μL of a solution of the GST-RIPK2 fusion protein (2.5 nM=>final conc. in the 5 μL assay volume is 1 nM) and of Anti-GST-Tb (1.25 nM=>final conc. in the 5 μL assay volume is 0.5 nM), a Lumi4®—Tb cryptate-conjugated anti-GST antibody from PerkinElmer (catalogue no 61GSTTAH), in assay buffer.
The resulting mixture was incubated 45 min at 22° C. to allow the formation of a complex between the Tracer 199, the fusion protein and Anti-GST-Tb. Subsequently, the amount of this complex was evaluated by measurement of the resonance energy transfer from the Tb-cryptate to the Tracer 199. Therefore, the fluorescence emissions at 620 nm and 665 nm after excitation at 337 nm were measured in a TR-FRET reader, e.g. a Pherastar FS(BMG Labtechnologies, Offenburg, Germany) or a Viewlux (PerkinElmer). The ratio of the emissions at 665 nm and at 620 nm was taken as the measure of the amount of the complex. The data were normalized (assay reaction without inhibitor=0% activity, all other assay components but no GST-RIPK2 fusion protein=−100% activity).

[3] = 50 nM of GSK583 = -100% activity

## COc1cc2ncc(-n3cc(N(C)C(=O)Cc4ccccc4Cl)cn3)n2cc1S(=O)(=O)C(C)(C)C [Example 173, N-(1-(6-(tert-butylsulfonyl)-7-methoxyimidazo[1,2-a]pyridin-3-yl)-1H-pyrazol-4-yl)-2-(2-chlorophenyl)-N-methylacetamide]
RIPK2 (KD)/XIAP (BIR2); [3]
  Emax: ≥ 80%
RIPK2 (KD)/XIAP (BIR2)
  pIC50: < 6.00
[1]
  pIC50: < 5.60
[2]
  pIC50: < 6.00

## COc1cc2ncc(-n3cc(NC(=O)[C@@H](C)c4ccccc4)cn3)n2cc1S(=O)(=O)C(C)(C)C [Example 162, (S)-N-(1-(6-(tert-butylsulfonyl)-7-methoxyimidazo[1,2-a]pyridin-3-yl)-1H-pyrazol-4-yl)-2-phenylpropanamide]
RIPK2 (KD)/XIAP (BIR2); [3]
  Emax: ≥ 80%
RIPK2 (KD)/XIAP (BIR2)
  pIC50: < 6.00
[1]
  pIC50: < 5.60
[2]
  pIC50: 6.00 to 6.30

## COc1cc2ncc(-c3cc(C(=O)N(C)C)n(C)n3)n2cc1S(=O)(=O)C(C)(C)C [Example 5, 3-(6-(tert-butylsulfonyl)-7-methoxyimidazo[1,2-a]pyridin-3-yl)-N,N,1-trimethyl-1H-pyrazole-5-carboxamide]
RIPK2 (KD)/XIAP (BIR2); [3]
  Emax: ≤ 30%
RIPK2 (KD)/XIAP (BIR2)
  pIC50: < 6.00
[1]
  pIC50: < 5.60
[2]
  pIC50: > 6.70

## COc1cc2ncc(-n3cc(NC(=O)N4CCCC4c4ccccc4)cn3)n2cc1S(=O)(=O)C(C)(C)C (single isomer, unassigned) [Example 178, (R)- or (S)-N-(1-(6-(tert-butylsulfonyl)-7-methoxyimidazo[1,2-a]pyridin-3-yl)-1H-pyrazol-4-yl)-2-phenylpyrrolidine-1-carboxamide]
RIPK2 (KD)/XIAP (BIR2); [3]
  PPI Amax: C (Amax of 55%>C>30)
RIPK2 (KD)/XIAP (BIR2)
  pIC50: < 6.00
[1]
  pIC50: < 5.60
[2]
  pIC50: < 6.00

## COc1cc2ncc(-n3cc(NC(=O)C4(F)CCCCC4)cn3)n2cc1S(=O)(=O)C(C)(C)C [Example 169, N-(1-(6-(tert-butylsulfonyl)-7-methoxyimidazo[1,2-a]pyridin-3-yl)-1H-pyrazol-4-yl)-1-fluorocyclohexane-1-carboxamide]
RIPK2 (KD)/XIAP (BIR2); [3]
  Emax: ≥ 80%
RIPK2 (KD)/XIAP (BIR2)
  pIC50: < 6.00
[1]
  pIC50: < 5.60
[2]
  pIC50: 6.30 to 6.70

## COc1cc2ncc(-n3cc(NC(=O)c4ccccc4)cn3)n2cc1S(=O)(=O)C(C)(C)C [Example 170, N-(1-(6-(tert-butylsulfonyl)-7-methoxyimidazo[1,2-a]pyridin-3-yl)-1H-pyrazol-4-yl)benzamide]
RIPK2 (KD)/XIAP (BIR2); [3]
  Emax: 55 to 80%
RIPK2 (KD)/XIAP (BIR2)
  pIC50: < 6.00
[1]
  pIC50: < 5.60
[2]
  pIC50: < 6.00

## COc1cc2ncc(-c3cc(NC(=O)C4(F)CCCCC4)n(CCO)n3)n2cc1S(=O)(=O)C(C)(C)C [Example 193, N-(3-(6-(tert-butylsulfonyl)-7-methoxyimidazo[1,2-a]pyridin-3-yl)-1-(2-hydroxyethyl)-1H-pyrazol-5-yl)-1-fluorocyclohexane-1-carboxamide]
RIPK2 (KD)/XIAP (BIR2); [3]
  Emax: ≥ 80%
RIPK2 (KD)/XIAP (BIR2)
  pIC50: 6.00 to 7.00
[1]
  pIC50: < 5.60
[2]
  pIC50: > 6.70

## COc1cc2ncc(-n3cc(NC(=O)Cc4ccc(F)cc4Cl)cn3)n2cc1S(=O)(=O)C(C)(C)C [Example 158, N-(1-(6-(tert-butylsulfonyl)-7-methoxyimidazo[1,2-a]pyridin-3-yl)-1H-pyrazol-4-yl)-2-(2-chloro-4-fluorophenyl)acetamide]
RIPK2 (KD)/XIAP (BIR2); [3]
  Emax: ≥ 80%
RIPK2 (KD)/XIAP (BIR2)
  pIC50: < 6.00
[1]
  pIC50: < 5.60
[2]
  pIC50: 6.00 to 6.30

## COc1cc2ncc(-n3cc(NC(=O)C4CCC(F)(F)CC4)cn3)n2cc1S(=O)(=O)C(C)(C)C [Example 165, N-(1-(6-(tert-butylsulfonyl)-7-methoxyimidazo[1,2-a]pyridin-3-yl)-1H-pyrazol-4-yl)-4,4-difluorocyclohexane-1-carboxamide]
RIPK2 (KD)/XIAP (BIR2); [3]
  Emax: 55 to 80%
RIPK2 (KD)/XIAP (BIR2)
  pIC50: < 6.00
[1]
  pIC50: < 5.60
[2]
  pIC50: < 6.00

## COc1cc2ncc(-n3cc(NC(=O)N4CCCC4c4ccccc4)cn3)n2cc1S(=O)(=O)C(C)(C)C (racemic) [Example 177, N-(1-(6-(tert-butylsulfonyl)-7-methoxyimidazo[1,2-a]pyridin-3-yl)-1H-pyrazol-4-yl)-2-phenylpyrrolidine-1-carboxamide]
RIPK2 (KD)/XIAP (BIR2); [3]
  Emax: ≥ 80%
RIPK2 (KD)/XIAP (BIR2)
  pIC50: < 6.00
[1]
  pIC50: < 5.60
[2]
  pIC50: < 6.00
